Data on four compounds can be found in patent US9493447B2, “Optically active PDE10 inhibitor” (OMEROS CORPORATION, priority 2014, dated 2016).

Test [1] concerns the target PDE5A (Homo sapiens (Human), UniProt O76074). The test is described as follows: PDE selectivity SPA assay, PDE5A. It is filed as biochemical. The conditions noted are these: substrate 37 nM H-cGMP. The protocol: (§1) The PDE assay medium consisted of (final concentrations); 50 mM Tris-HCL, pH 7.5; 8.3 mM MgCl2; 1.7 mM EGTA; 0.5 mg/mL bovine serum albumin; and substrate (H-cAMP or H-cGMP). The BSA was lyophilized powder, essentially fatty acid free, ≧96% pure from Sigma (A6003).

Test [2] deals with bovine PDE6 (Bos taurus, UniProt P11541+P23439). In words: PDE selectivity assay, PDE6. It is filed as biochemical. The protocol:
as §1

Test [3] addresses PDE10A2 (Homo sapiens (Human), UniProt Q9Y233). The test is described as follows: PDE selectivity SPA assay, PDE10A2. It counts as biochemical. The conditions noted are these: Table 1 selectivity profile. As for the experimental part:
as §1

For test [4], the target named is Human PDE10 (Homo sapiens (Human), UniProt Q9Y233). In words: Inhibition of Human PDE10 (Example 13, SPA assay). It counts as biochemical. The conditions noted are these: substrate 125 nM H-cGMP; all three compounds tested in the same experiment. As for the experimental part: as §1
The target in test [5] is PDE2A (Homo sapiens (Human), UniProt O00408). The test is described as follows: PDE selectivity SPA assay, PDE2A. It is filed as biochemical. The conditions noted are these: substrate 37 nM H-cGMP. As for the experimental part:
as §1

Test [6] has as its system PDE10. The conditions noted are these: from Soderling and Beavo 2000; read-out: IC50 (50% inhibitory concentration) PDE10; cited from earlier work.

Human PDE10, sequence (Q9Y233 267-1055): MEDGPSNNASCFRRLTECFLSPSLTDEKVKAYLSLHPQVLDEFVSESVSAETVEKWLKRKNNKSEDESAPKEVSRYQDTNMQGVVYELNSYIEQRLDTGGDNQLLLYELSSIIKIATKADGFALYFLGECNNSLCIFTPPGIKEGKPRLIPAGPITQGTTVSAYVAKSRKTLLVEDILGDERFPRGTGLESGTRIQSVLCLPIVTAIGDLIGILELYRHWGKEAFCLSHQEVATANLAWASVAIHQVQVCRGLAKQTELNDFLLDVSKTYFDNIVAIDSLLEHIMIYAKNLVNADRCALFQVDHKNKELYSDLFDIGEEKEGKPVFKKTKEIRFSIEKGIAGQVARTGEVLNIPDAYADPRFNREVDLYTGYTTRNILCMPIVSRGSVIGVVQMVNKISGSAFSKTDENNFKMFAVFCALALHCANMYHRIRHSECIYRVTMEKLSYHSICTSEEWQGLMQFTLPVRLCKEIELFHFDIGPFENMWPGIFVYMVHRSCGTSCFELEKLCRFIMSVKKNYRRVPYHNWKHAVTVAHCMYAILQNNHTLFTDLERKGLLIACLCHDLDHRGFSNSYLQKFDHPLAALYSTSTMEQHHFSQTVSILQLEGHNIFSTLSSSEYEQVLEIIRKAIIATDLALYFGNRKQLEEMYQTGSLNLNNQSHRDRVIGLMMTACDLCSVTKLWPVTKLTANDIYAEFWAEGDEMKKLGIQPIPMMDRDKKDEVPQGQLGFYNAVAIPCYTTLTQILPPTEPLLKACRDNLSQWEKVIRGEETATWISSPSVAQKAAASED
PDE2A, sequence (O00408 whole entry): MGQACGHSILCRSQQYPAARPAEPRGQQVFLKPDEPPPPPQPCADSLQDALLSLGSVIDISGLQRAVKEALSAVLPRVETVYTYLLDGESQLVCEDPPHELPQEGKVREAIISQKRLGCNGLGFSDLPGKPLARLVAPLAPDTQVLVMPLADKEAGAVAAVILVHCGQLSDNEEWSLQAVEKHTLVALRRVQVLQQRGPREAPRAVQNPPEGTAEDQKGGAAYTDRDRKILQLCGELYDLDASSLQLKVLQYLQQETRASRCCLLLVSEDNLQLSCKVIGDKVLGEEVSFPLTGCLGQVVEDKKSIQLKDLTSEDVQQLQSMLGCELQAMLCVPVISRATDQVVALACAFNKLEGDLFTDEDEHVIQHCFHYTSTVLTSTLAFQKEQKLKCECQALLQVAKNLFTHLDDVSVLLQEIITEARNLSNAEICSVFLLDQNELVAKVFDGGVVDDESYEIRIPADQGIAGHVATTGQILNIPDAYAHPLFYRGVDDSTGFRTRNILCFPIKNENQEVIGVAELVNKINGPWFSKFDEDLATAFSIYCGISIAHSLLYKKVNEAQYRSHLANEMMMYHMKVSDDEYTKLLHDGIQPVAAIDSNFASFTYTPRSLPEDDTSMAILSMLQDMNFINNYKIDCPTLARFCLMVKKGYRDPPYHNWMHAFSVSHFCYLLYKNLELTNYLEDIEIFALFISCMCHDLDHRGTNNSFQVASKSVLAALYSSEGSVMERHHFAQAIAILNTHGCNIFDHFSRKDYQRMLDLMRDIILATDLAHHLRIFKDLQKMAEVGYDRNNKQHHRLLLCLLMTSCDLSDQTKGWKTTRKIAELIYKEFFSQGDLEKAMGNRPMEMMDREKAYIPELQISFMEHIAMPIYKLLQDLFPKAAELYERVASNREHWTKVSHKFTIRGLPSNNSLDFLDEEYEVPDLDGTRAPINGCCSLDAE
PDE10A2, sequence (Q9Y233 267-1055): as the sequence (Q9Y233 267-1055) above
bovine PDE6, sequence (P11541 2-859 limits assumed): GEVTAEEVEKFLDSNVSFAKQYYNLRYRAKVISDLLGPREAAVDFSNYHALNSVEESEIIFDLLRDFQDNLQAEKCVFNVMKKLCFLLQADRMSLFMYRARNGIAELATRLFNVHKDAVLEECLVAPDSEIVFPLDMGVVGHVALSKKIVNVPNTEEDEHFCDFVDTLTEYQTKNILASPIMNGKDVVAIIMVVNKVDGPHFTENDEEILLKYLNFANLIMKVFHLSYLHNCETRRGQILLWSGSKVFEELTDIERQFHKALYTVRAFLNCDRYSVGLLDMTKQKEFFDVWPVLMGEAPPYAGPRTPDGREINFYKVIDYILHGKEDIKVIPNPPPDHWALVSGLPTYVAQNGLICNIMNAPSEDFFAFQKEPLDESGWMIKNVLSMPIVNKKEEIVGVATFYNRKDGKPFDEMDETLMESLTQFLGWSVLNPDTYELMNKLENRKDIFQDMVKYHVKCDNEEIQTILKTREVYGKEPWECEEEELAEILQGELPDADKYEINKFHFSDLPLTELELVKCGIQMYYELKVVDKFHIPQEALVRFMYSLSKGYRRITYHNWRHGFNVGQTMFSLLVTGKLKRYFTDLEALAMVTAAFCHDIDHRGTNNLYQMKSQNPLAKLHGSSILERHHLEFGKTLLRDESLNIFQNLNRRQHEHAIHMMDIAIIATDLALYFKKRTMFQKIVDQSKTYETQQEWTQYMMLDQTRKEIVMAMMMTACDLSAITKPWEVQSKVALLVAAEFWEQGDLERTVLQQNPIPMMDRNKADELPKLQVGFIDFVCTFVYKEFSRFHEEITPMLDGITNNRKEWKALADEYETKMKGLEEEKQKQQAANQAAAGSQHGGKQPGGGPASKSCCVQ
bovine PDE6, sequence (P23439 2-853 limits assumed): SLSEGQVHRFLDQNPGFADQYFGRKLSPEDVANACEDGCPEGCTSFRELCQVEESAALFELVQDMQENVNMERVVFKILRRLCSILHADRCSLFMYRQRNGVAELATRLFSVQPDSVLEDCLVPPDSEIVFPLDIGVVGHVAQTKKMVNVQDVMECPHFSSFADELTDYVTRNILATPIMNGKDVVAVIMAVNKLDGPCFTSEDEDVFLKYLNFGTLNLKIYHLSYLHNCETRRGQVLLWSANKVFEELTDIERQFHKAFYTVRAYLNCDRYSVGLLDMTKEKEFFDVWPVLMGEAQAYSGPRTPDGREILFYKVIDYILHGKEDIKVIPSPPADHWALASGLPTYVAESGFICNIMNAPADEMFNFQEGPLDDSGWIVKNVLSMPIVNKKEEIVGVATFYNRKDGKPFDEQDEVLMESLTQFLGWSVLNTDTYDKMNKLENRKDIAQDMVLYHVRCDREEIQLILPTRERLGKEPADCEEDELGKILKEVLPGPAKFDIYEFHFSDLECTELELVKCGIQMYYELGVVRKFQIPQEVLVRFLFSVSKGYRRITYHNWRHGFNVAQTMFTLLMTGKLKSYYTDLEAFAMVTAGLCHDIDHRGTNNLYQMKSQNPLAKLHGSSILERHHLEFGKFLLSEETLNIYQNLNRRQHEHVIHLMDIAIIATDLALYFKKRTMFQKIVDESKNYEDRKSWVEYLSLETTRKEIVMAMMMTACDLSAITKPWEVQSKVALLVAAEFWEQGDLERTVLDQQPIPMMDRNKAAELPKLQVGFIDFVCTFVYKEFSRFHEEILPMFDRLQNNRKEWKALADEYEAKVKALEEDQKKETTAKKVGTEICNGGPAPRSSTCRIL

As for `CCOC(C(=O)c1ccc(-c2cc(OC)c(Cl)c(OC)c2)o1)c1ccc(-c2nnc(C)s2)cc1` (racemic) [Compound 1001, 1-(5-(4-chloro-3,5-dimethoxyphenyl)furan-2-yl)-2-ethoxy-2-(4-(5-methyl-1,3,4-thiadiazol-2-yl)phenyl)ethanone], the IC50 in test [1] is 5.74 µM; in test [2], greater than 3000 nM; in test [3], 0.62 nM; in test [4], 0.62 nM; in test [5] it was 545 nM.
On to `CCO[C@H](C(=O)c1ccc(-c2cc(OC)c(Cl)c(OC)c2)o1)c1ccc(-c2nnc(C)s2)cc1` [Compound 2001, (S)-1-(5-(4-chloro-3,5-dimethoxyphenyl)furan-2-yl)-2-ethoxy-2-(4-(5-methyl-1,3,4-thiadiazol-2-yl)phenyl)ethanone], for which the IC50 in test [4] is 0.44 nM.
Compound `CCO[C@@H](C(=O)c1ccc(-c2cc(OC)c(Cl)c(OC)c2)o1)c1ccc(-c2nnc(C)s2)cc1` [Compound 3001] returned an IC50 in test [4] of 5.8 nM.
Regarding `CC(C)Cn1c(=O)n(C)c(=O)c2[nH]cnc21` [IBMX], the IC50 in test [6] is 2600 nM.
